Assay results: patent publication US6372785B1, “Synthesis of 1,8-dichloro-anthracene analogues and pharmaceutical compositions based thereon” (Keith Chan, President GloboAsia, LLC, priority 2000, dated 2002)

Compound `O=C(CCCBr)Oc1c2c(Cl)cccc2cc2cccc(Cl)c12` [Compound 3I, 1,8-Dichloro-9-(4-bromobutyroxy)anthracene] has a melting point of 155 to 157 °C. `O=C(Oc1c2c(Cl)cccc2cc2cccc(Cl)c12)c1ccccc1` [Compound 3L, 1,8-Dichloro-9-benzoyloxyanthracene] showed a melting point of 183 to 185 °C. Compound `CC(=O)Oc1c2c(Cl)cccc2cc2cccc(Cl)c12` [Compound 3a, 1,8-Dichloro-9-acetoxyanthracene] has a melting point of 130 to 131 °C. `O=C(CBr)Oc1c2c(Cl)cccc2cc2cccc(Cl)c12` [Compound 3b, 1,8-Dichloro-9-bromoacetoxyanthracene] gave a melting point of 192 to 193 °C. `O=C(CCl)Oc1c2c(Cl)cccc2cc2cccc(Cl)c12` [Compound 3c, 1,8-Dichloro-9-chloroacetoxyanthracene] showed a melting point of 178 to 180 °C. In the case of `CCC(=O)Oc1c2c(Cl)cccc2cc2cccc(Cl)c12` [Compound 3d, 1,8-Dichloro-9-propionoxyanthracene], the melting point is reported as 150 to 152 °C. Compound `CC(C)C(=O)Oc1c2c(Cl)cccc2cc2cccc(Cl)c12` [Compound 3e, 1,8-Dichloro-9-isobutyroxyanthracene] has a melting point of 184 to 186 °C. Compound `CCCC(=O)Oc1c2c(Cl)cccc2cc2cccc(Cl)c12` [Compound 3h, 1,8-Dichloro-9-butyroxyanthracene] has a melting point of 152 to 154 °C. `CCCCCC(=O)Oc1c2c(Cl)cccc2cc2cccc(Cl)c12` [Compound 3k, 1,8-Dichloro-9-hexanoyloxyanthracene] gave a melting point of 136 to 138 °C. `Cc1ccccc1C(=O)Oc1c2c(Cl)cccc2cc2cccc(Cl)c12` [Compound 3m, 1,8-Dichloro-9-(o-toluoyloxy)anthracene] showed a melting point of 168 to 170 °C. `Cc1cccc(C(=O)Oc2c3c(Cl)cccc3cc3cccc(Cl)c23)c1` [Compound 3n, 1,8-Dichloro-9-(m-toluoyloxy)anthracene] gave a melting point of 196 to 198 °C. Compound `Cc1ccc(C(=O)Oc2c3c(Cl)cccc3cc3cccc(Cl)c23)cc1` [Compound 3o, 1,8-Dichloro-9-(p-toluoyloxy)anthracene] has a melting point of 220 to 222 °C.
